Source: publication PMC11354514, “Synthesis and Anti-Cancer Activity of the Novel Selective Glucocorticoid Receptor Agonists of the Phenylethanolamine Series” (International Journal of Molecular Sciences, 2024)
Read-outs that look alike come from different tables or passages of the source.

Biological target: T1, glucocorticoid receptor (GR) (Homo sapiens, UniProt P04150)
T1 construct: gene NR3C1
T1 sequence (P04150 1-777): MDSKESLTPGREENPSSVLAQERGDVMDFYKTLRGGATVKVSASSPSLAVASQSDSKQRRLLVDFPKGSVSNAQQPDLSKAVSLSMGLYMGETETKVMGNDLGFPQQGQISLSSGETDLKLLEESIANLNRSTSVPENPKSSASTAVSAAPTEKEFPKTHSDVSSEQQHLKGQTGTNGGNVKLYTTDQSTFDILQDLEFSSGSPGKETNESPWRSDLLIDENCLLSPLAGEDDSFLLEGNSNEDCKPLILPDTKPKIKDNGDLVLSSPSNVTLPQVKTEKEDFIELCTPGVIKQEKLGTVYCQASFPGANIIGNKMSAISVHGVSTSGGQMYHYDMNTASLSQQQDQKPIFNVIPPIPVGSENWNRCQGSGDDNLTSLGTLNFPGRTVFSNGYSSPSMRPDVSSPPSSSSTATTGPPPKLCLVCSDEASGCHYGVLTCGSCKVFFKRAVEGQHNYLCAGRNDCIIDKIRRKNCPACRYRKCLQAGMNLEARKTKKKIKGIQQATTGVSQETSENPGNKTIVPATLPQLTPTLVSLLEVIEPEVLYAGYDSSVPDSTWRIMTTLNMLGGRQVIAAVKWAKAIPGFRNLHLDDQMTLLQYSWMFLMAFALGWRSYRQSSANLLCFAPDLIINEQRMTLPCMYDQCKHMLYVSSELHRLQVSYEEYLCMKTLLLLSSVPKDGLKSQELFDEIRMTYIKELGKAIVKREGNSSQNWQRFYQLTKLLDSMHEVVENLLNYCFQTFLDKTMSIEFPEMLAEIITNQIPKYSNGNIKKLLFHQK
Assay: [3H]Dex competition radioligand binding in whole K562 cells (endogenous GR)
Assay type: cell-based

Structure (SMILES) | IC50 | IC50 (read-out: IC50)
CNCC(Cl)c1ccc(OC(C)=O)cc1 (centres unmarked) [CpdA, 2-(4-acetoxyphenyl)-2-chloro-N-methylethylammonium-chloride] | 2500 nM | –
Oc1ccc(C(O)CN2CCCCC2)cc1 (centres unmarked) [CpdA-03, 4-(1-hydroxy-2-(piperidin-1-yl)ethyl)phenol] | – | 150 nM
